Measured values published in PubChem BioAssay AID192 (DTP/NCI, 2004).
Values joined by “and” are separate entries in the source; they are usually repeats but may differ in a detail not shown here. Equal values may be shown once. Inconclusive results and toxic doses are left out. The calls were made as follows: active = survival T/C of 150% or more; inactive = T/C below 125% in these data.

Tested on: BDF1 mice, B16 melanoma ip, median survival T/C
Assay: NCI In Vivo Anticancer Drug Screen. Data for tumor model B16 Melanoma (intraperitoneal) in B6D2F1 (BDF1) mice
Settings: endpoint: median survival time, higher = longer survival
Summary of the method: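 Values are ratios of treated (T) to vehicle-control (C) measurements of survival or tumor size in tumor-bearing mice.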

[1] = dose: 25.0 mg/kg/injection, schedule: Q04DX003 (ip), vehicle: Klucel (hydroxypropylcellulose) (HPC)
[2] = dose: 50.0 mg/kg/injection, schedule: Q01DX009 (ip), vehicle: saline with Tween-80
[3] = dose: 50.0 mg/kg/injection, schedule: Q04DX003 (ip), vehicle: Klucel (hydroxypropylcellulose) (HPC)
[4] = dose: 100.0 mg/kg/injection, schedule: Q01DX009 (ip), vehicle: Klucel (hydroxypropylcellulose) (HPC)
[5] = dose: 100.0 mg/kg/injection, schedule: Q04DX003 (ip), vehicle: Klucel (hydroxypropylcellulose) (HPC)
[6] = dose: 200.0 mg/kg/injection, schedule: Q01DX009 (ip), vehicle: Klucel (hydroxypropylcellulose) (HPC)
[7] = dose: 6.25 mg/kg/injection, schedule: Q01DX009 (ip), vehicle: Klucel (hydroxypropylcellulose) (HPC)
[8] = dose: 12.5 mg/kg/injection, schedule: Q01DX009 (ip), vehicle: Klucel (hydroxypropylcellulose) (HPC)
[9] = dose: 25.0 mg/kg/injection, schedule: Q01DX009 (ip), vehicle: Klucel (hydroxypropylcellulose) (HPC)
[10] = dose: 50.0 mg/kg/injection, schedule: Q01DX009 (ip), vehicle: Klucel (hydroxypropylcellulose) (HPC)
[11] = dose: 400.0 mg/kg/injection, schedule: Q01DX009 (ip), vehicle: Klucel (hydroxypropylcellulose) (HPC)
[12] = dose: 12.5 mg/kg/injection, schedule: Q01DX009 (ip), vehicle: saline with Tween-80
[13] = dose: 25.0 mg/kg/injection, schedule: Q01DX009 (ip), vehicle: saline with Tween-80
[14] = dose: 3.12 mg/kg/injection, schedule: Q01DX009 (ip), vehicle: saline
[15] = dose: 6.25 mg/kg/injection, schedule: Q01DX009 (ip), vehicle: saline
[16] = dose: 12.5 mg/kg/injection, schedule: Q01DX009 (ip), vehicle: saline

Measured: T/C

CC(C)C(NC(=O)c1ccccc1)C(=O)O (centres undefined)
inactive: [1] 111 % of control | [2] 95 % of control | [3] 100 % of control | [4] 103 % of control | dose: 100.0 mg/kg/injection, schedule: Q01DX009 (ip), vehicle: saline with Tween-80 93 % of control | [5] 86 % of control | [6] 96 % of control

CCC(CO)NC(=O)C1C=C2c3cccc4[nH]cc(c34)CC2N(C)C1 (centres undefined)
inactive: [7] 93 % of control | [8] 98 % of control | [9] 91 % of control | [10] 86 % of control | [4] 86 % of control | [6] 111 % of control

Cc1c[nH]c(=O)[nH]c1=O
inactive: dose: 32.0 mg/kg/injection, schedule: Q01DX009 (ip), vehicle: Klucel (hydroxypropylcellulose) (HPC) 97 % of control and 102 % of control | dose: 32.0 mg/kg/injection, schedule: Q01DX009 (ip), vehicle: saline with Tween-80 91 % of control | dose: 64.0 mg/kg/injection, schedule: Q01DX009 (ip), vehicle: Klucel (hydroxypropylcellulose) (HPC) 97 % of control | dose: 64.0 mg/kg/injection, schedule: Q01DX009 (ip), vehicle: saline with Tween-80 100 % of control | dose: 128.0 mg/kg/injection, schedule: Q01DX009 (ip), vehicle: Klucel (hydroxypropylcellulose) (HPC) 97 % of control and 103 % of control | dose: 256.0 mg/kg/injection, schedule: Q01DX009 (ip), vehicle: Klucel (hydroxypropylcellulose) (HPC) 100 % of control and 103 % of control | dose: 512.0 mg/kg/injection, schedule: Q01DX009 (ip), vehicle: Klucel (hydroxypropylcellulose) (HPC) 98 % of control and 103 % of control | dose: 512.0 mg/kg/injection, schedule: Q01DX009 (ip), vehicle: saline with Tween-80 107 % of control

c1ccc(COCCNCCOCc2ccccc2)cc1
inactive: [8] 100 % of control | [9] 90 % of control | [10] 103 % of control

Cc1cccc(-c2nc3cc(Cl)ccc3c(=O)o2)c1
inactive: [9] 100 % of control | [1] 103 % of control | [10] 107 % of control | [3] 103 % of control | [4] 100 % of control | [5] 106 % of control

Cc1cc2c(cc1C)NC(=O)C(C)CN2 (centres undefined)
inactive: [4] 90 % of control | [6] 88 % of control | [11] 87 % of control

C=C1CCN(c2ccccc2)C1=O
inactive: dose: 4.0 mg/kg/injection, schedule: Q01DX009 (ip), vehicle: saline + alcohol 96 % of control | dose: 8.0 mg/kg/injection, schedule: Q01DX009 (ip), vehicle: saline + alcohol 116 % of control | dose: 16.0 mg/kg/injection, schedule: Q01DX009 (ip), vehicle: saline + alcohol 112 % of control | dose: 64.0 mg/kg/injection, schedule: Q01DX009 (ip), vehicle: saline + alcohol 107 % of control

CCCCCCCCCC(O)CCC (centres undefined)
inactive: [9] 103 % of control | [10] 99 % of control | [4] 92 % of control

CC(C)NNC(=O)c1ccc(Cl)cc1
inactive: [7] 89 % of control | [8] 92 % of control | [9] 89 % of control | [10] 94 % of control | [4] 107 % of control

CCOc1ccc(/C=N/NS(=O)(=O)c2ccc(C)cc2)cc1
inactive: [4] 96 % of control | [6] 90 % of control | [11] 90 % of control

CCCN(CCC)C(=O)c1ccncc1
inactive: [4] 93 % of control | [11] 95 % of control

CCc1ccc(NC2=NCCO2)cc1
inactive: [12] 102 % of control | [13] 97 % of control | [2] 91 % of control

O=c1cccccc1O.O=c1cccccc1O.[Cu]
inactive: dose: 0.39 mg/kg/injection, schedule: Q01DX009 (ip), vehicle: Klucel (hydroxypropylcellulose) (HPC) 102 % of control | dose: 0.78 mg/kg/injection, schedule: Q01DX009 (ip), vehicle: Klucel (hydroxypropylcellulose) (HPC) 92 % of control

Cc1c(NC=O)c(=O)n(-c2ccccc2)n1C
inactive: [4] 100 % of control | [6] 100 % of control | [11] 96 % of control

Cc1ccccc1N=Nc1c(N)ccc2ccccc12
inactive: [10] 110 % of control | [4] 106 % of control | [6] 106 % of control

CSCCC(N)C(=O)O (centres undefined)
inactive: dose: 40.0 mg/kg/injection, schedule: Q01DX009 (ip), vehicle: saline with Tween-80 103 % of control and 106 % of control | dose: 80.0 mg/kg/injection, schedule: Q01DX009 (ip), vehicle: saline with Tween-80 102 % of control and 108 % of control | dose: 160.0 mg/kg/injection, schedule: Q01DX009 (ip), vehicle: saline with Tween-80 113 % of control and 118 % of control | dose: 320.0 mg/kg/injection, schedule: Q01DX009 (ip), vehicle: saline with Tween-80 94 % of control and 100 % of control

NCC(O)c1ccc(O)c(O)c1 (centres undefined)
inactive: dose: 1.56 mg/kg/injection, schedule: Q01DX009 (ip), vehicle: saline 97 % of control and 105 % of control | [14] 95 % of control and 107 % of control | [15] 100 % of control and 106 % of control | [16] 99 % of control and 102 % of control

CCCCCCCCC1CCC(N)CC1 (centres undefined)
inactive: [10] 93 % of control | [4] 86 % of control

CN(Cc1cnc2nc(N)nc(N)c2n1)c1ccc(C(=O)N[C@@H](CCC(=O)O)C(=O)O)cc1
inactive: dose: 0.25 mg/kg/injection, schedule: Q01DX009 (ip), vehicle: saline 102 % of control | dose: 0.25 mg/kg/injection, schedule: Q01DX017 (ip), vehicle: saline 107 % of control | dose: 0.37 mg/kg/injection, schedule: Q01DX009 (ip), vehicle: sodium bicarbonate 93 % of control and 103 % of control | dose: 0.5 mg/kg/injection, schedule: Q01DX009 (ip), vehicle: sodium bicarbonate 92 % of control and 103 % of control (2×) | dose: 0.5 mg/kg/injection, schedule: Q01DX017 (ip), vehicle: saline 104 % of control | dose: 0.75 mg/kg/injection, schedule: Q01DX009 (ip), vehicle: sodium bicarbonate 104 % of control and 105 % of control | dose: 1.0 mg/kg/injection, schedule: Q01DX017 (ip), vehicle: saline 111 % of control | dose: 1.5 mg/kg/injection, schedule: Q01DX009 (ip), vehicle: saline 92 % of control | dose: 1.5 mg/kg/injection, schedule: Q01DX009 (ip), vehicle: sodium bicarbonate 98 % of control and 106 % of control | dose: 2.0 mg/kg/injection, schedule: Q01DX017 (ip), vehicle: saline 88 % of control | dose: 2.0 mg/kg/injection, schedule: Q04DX005 (ip), vehicle: saline 107 % of control | dose: 3.0 mg/kg/injection, schedule: Q01DX009 (ip), vehicle: sodium bicarbonate 94 % of control and 100 % of control | dose: 4.0 mg/kg/injection, schedule: Q04DX003 (ip), vehicle: saline 113 % of control | dose: 4.0 mg/kg/injection, schedule: Q04DX005 (ip), vehicle: saline 109 % of control | dose: 6.0 mg/kg/injection, schedule: Q01DX009 (ip), vehicle: sodium bicarbonate 90 % of control | dose: 8.0 mg/kg/injection, schedule: Q04DX003 (ip), vehicle: saline 109 % of control | dose: 8.0 mg/kg/injection, schedule: Q04DX005 (ip), vehicle: saline 104 % of control | dose: 16.0 mg/kg/injection, schedule: Q04DX003 (ip), vehicle: saline 109 % of control | dose: 16.0 mg/kg/injection, schedule: Q04DX005 (ip), vehicle: saline 97 % of control | dose: 32.0 mg/kg/injection, schedule: Q01DX001 (ip), vehicle: saline 121 % of control | dose: 32.0 mg/kg/injection, schedule: Q04DX003 (ip), vehicle: saline 106 % of control | dose: 128.0 mg/kg/injection, schedule: Q01DX001 (ip), vehicle: saline 123 % of control

CN=C1CN(O)C(c2ccccc2)=c2cc(Cl)ccc2=N1
inactive: [14] 115 % of control | [15] 101 % of control and 114 % of control | [16] 92 % of control and 94 % of control and 101 % of control | dose: 25.0 mg/kg/injection, schedule: Q01DX009 (ip), vehicle: saline 100 % of control and 101 % of control | dose: 50.0 mg/kg/injection, schedule: Q01DX009 (ip), vehicle: saline 114 % of control and 117 % of control | dose: 100.0 mg/kg/injection, schedule: Q01DX009 (ip), vehicle: saline 100 % of control and 102 % of control

COC(=O)C(F)C(Br)C(=O)OC (centres undefined)
inactive: dose: 3.12 mg/kg/injection, schedule: Q01DX009 (ip), vehicle: saline with Tween-80 105 % of control | dose: 6.25 mg/kg/injection, schedule: Q01DX009 (ip), vehicle: saline with Tween-80 99 % of control | [12] 94 % of control | [13] 99 % of control | [2] 98 % of control
